Several values for one entry are separate records, joined by “and”; a condition that tells them apart may be missing. Equal values may be shown once. Read-outs that look alike come from different tables or passages of the source.
Columns and labels:
AT1 = molecular target: T1, AT1 (Homo sapiens, UniProt P30556); test: Binding assay AT1; conditions: 100 nM
T1 construct: Eurofins Cerep (external service)
T1 sequence (P30556 1-359): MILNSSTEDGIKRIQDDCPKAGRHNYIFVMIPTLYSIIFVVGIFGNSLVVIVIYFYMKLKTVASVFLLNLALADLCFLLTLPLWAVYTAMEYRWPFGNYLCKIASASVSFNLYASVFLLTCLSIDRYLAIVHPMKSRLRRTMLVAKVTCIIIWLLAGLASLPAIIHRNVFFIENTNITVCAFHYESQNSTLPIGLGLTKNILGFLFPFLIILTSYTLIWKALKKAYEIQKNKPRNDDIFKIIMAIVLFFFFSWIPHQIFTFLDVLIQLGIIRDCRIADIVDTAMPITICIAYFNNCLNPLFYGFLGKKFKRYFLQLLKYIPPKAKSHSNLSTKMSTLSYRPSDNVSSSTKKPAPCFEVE

CXCR3 = molecular target: T2, CXCR3 (Homo sapiens, UniProt P49682); test: Cellular functional assay CXCR3
T2 sequence (P49682 1-368): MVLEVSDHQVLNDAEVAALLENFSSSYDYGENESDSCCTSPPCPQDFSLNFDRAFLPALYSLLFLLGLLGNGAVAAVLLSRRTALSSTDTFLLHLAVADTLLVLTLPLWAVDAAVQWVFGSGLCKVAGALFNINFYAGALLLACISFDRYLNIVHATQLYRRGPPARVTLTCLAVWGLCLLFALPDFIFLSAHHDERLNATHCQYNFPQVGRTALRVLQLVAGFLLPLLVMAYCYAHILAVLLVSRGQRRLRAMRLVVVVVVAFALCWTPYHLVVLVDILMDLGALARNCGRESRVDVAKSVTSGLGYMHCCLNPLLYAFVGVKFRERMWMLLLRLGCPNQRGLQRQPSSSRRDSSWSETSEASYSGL

ADR2 = molecular target: T3, ADR2 (Homo sapiens, UniProt P07550); test: Binding assay ADR2 (reference ICI 118551); conditions: 100 nM
T3 construct: Eurofins Cerep (external service)

ADR2C = molecular target: T4, ADR2C (Homo sapiens, UniProt P18825); test: Binding assay ADR2C; conditions: 100 nM
T4 construct: Eurofins Cerep (external service)
T4 sequence (P18825 1-462): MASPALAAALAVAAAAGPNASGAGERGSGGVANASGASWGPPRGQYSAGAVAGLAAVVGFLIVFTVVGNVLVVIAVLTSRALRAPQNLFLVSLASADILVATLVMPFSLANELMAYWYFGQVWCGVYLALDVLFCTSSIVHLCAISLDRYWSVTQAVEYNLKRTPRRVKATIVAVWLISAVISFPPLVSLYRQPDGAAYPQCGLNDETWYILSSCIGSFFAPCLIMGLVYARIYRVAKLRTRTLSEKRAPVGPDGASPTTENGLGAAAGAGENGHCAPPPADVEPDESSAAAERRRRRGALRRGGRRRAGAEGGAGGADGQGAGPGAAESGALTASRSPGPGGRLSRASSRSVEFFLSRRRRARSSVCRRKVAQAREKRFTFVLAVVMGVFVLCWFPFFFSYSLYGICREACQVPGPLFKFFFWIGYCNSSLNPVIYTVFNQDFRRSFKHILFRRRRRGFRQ

CCR8 = CCR8 (Homo sapiens, UniProt P51685); test: Cellular functional assay CCR8
ADR2A = molecular target: T5, ADR2A (Homo sapiens, UniProt P08913); test: Binding assay ADR2A; conditions: 100 nM
T5 construct: Eurofins Cerep (external service)
T5 sequence (P08913 1-465): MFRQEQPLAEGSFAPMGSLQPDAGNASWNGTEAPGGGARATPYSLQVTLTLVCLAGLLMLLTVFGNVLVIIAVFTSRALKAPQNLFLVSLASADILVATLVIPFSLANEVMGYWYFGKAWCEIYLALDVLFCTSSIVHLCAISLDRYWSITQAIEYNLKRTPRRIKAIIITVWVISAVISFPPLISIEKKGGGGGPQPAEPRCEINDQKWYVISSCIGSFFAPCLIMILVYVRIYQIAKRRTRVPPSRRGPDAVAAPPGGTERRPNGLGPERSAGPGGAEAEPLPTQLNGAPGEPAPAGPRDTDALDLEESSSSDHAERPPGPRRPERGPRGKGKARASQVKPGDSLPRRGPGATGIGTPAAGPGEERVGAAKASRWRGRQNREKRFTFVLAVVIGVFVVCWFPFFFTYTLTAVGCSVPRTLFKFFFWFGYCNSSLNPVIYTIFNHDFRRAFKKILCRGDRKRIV

CCR10 = molecular target: T6, CCR10 (Homo sapiens, UniProt P46092); test: Cellular functional assay CCR10
T6 sequence (P46092 1-362): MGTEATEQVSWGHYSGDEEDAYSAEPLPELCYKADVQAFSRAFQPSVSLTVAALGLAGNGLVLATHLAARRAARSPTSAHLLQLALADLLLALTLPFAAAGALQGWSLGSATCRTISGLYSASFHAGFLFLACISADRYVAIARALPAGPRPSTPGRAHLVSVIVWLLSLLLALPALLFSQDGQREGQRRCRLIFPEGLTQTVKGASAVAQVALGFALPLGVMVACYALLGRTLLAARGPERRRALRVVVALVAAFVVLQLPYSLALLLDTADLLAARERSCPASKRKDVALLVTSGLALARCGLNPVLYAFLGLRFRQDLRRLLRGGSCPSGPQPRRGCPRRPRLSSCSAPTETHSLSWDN

[1] = mean of 2, read-out: % Of control specific binding, Mean
[2] = read-out: % Inhibition of control specific binding
[3] = single replicates 1 and 2, 0.1 µM
[4] = single replicates 1 and 2, read-out: % Of control specific binding
[5] = antagonist effect, 100 nM, single replicates 1st and 2nd, 0.1 µM
[6] = read-out: % Inhibition of control agonist response
[7] = read-out: Agonist Response (% of Control), Mean, antagonist effect, 100 nM, mean of 2
[8] = read-out: Agonist Response (% of Control), antagonist effect, 100 nM, single replicates 1st and 2nd

T3 sequence (P07550 whole entry): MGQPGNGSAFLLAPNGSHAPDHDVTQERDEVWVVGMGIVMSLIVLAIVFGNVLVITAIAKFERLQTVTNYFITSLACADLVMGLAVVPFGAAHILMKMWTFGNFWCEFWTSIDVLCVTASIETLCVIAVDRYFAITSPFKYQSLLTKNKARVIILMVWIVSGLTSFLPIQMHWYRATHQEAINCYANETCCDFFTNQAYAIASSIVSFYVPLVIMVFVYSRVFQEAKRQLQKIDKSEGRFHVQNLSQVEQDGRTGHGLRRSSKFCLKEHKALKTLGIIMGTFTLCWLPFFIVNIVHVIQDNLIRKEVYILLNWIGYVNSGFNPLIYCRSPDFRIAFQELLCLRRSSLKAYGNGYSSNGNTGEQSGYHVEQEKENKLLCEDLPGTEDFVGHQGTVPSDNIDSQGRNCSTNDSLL
Chain of CCR8 (P51685 whole entry): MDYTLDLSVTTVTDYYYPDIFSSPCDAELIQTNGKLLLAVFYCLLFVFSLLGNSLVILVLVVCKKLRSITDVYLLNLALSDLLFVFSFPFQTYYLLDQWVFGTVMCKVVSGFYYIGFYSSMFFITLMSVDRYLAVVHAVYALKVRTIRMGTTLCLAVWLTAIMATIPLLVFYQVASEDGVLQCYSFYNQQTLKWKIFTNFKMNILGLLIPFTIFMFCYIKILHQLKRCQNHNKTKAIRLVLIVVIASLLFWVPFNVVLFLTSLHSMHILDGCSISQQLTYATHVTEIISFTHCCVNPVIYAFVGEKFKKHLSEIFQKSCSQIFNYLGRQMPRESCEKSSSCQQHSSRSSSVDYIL

Q: Which results are given for Cc1ccc(-c2nnc(SCC(=O)Nc3nccs3)[nH]2)cc1 [Compound 9]?
A: remaining activity at 0.1 µM (AT1; [1]): 110%; inhibition at 0.1 µM (AT1; [2]): -10%; % Of control specific binding (AT1; [3]): 108.6%; remaining activity at 0.1 µM (AT1; [4]): 112%; Agonist Response (% of Control) (CXCR3; [5]): 102.1%; inhibition at 0.1 µM (CXCR3; [6]): 0.3%; activity at 0.1 µM (CXCR3; [7]): 102%; activity at 0.1 µM (CXCR3; [8]): 103%; remaining activity at 0.1 µM (ADR2; [1]): 102%; inhibition at 0.1 µM (ADR2; [2]): -2%; % Of control specific binding (ADR2; [3]): 108.1%; remaining activity at 0.1 µM (ADR2; [4]): 95.8%; remaining activity at 0.1 µM (ADR2C; [1]): 109%; inhibition at 0.1 µM (ADR2C; [2]): -9%; % Of control specific binding (ADR2C; [3]): 108.4%; remaining activity at 0.1 µM (ADR2C; [4]): 109%; Agonist Response (% of Control) (CCR8; [5]): 116.9% and 80.2%; inhibition at 0.1 µM (CCR8; [6]): 2%; activity at 0.1 µM (CCR8; [7]): 98.5%; remaining activity at 0.1 µM (ADR2A; [1]): 99.9%; inhibition at 0.1 µM (ADR2A; [2]): 0%; % Of control specific binding (ADR2A; [3]): 99.5%; remaining activity at 0.1 µM (ADR2A; [4]): 100%; Agonist Response (% of Control) (CCR10; [5]): 90.0%; inhibition at 0.1 µM (CCR10; [6]): -0.9%; activity at 0.1 µM (CCR10; [7]): 87.7%; activity at 0.1 µM (CCR10; [8]): 85.4%
